Reference: US9101148B2, “Carbohydrate modifying agent and drinks containing the modifying agent” (SBS Food Group LLC, priority 2001, dated 2015)

Test system: mutans streptococci
Assay: Inhibition of growth and adherence of mutans streptococci in vitro by zinc salts
Format: cell-based
Conditions: 0.5% zinc solution
Description: In another preferred embodiment of the invention, the formulation includes one or more zinc salt or other source of the zinc ion. Metabolically, zinc is a critical nutrient in the synthesis of insulin and the metabolism of carbohydrates. From a dental perspective, cariogenic bacteria enzymatically produce an insoluble glucan deposit from simple sugars present in the mouth that firmly adheres to the enamel tooth surface.

| Compound | adherence of mutans streptococci | growth of mutans streptococci |
| --- | --- | --- |
| [Cl-].[Cl-].[Zn+2] [zinc chloride] | inhibited | inhibited |
| zinc ascorbate | inhibited | inhibited |
